pIC50, pKd: −log10 of the molar value.

In assay [1] the target is Human Cbl-b (residues 40-426) (Homo sapiens (Human), UniProt Q13191). The assay can be described thus: Cbl-b SPR assay. The class given is binding. Conditions: for Fold of selectivity: C-cbl SPR Kd vs Cbl-b SPR Kd; for pKd: SPR, 20° C. The procedure, abridged: (§1)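 Binding is measured by surface plasmon resonance against both isoforms, with double referencing and 1:1 kinetic fitting. Dissociation time is tuned to 4-5 half-lives.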

The target of another assay is Cbl-b (Homo sapiens (Human), UniProt Q13191). The assay can be described thus: Cbl-b LCK Ub TR-FRET assay (Cbl-b Lck HTRF). The class given is biochemical. The conditions noted are these: for pIC50: Cbl-b LCK Ub TR-FRET; for fold-selectivity (Cbl-b over C-cbl): ratio C-cbl Lck HTRF IC50 / Cbl-b Lck HTRF IC50. The procedure, abridged:
(§2)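 Signal is read once the detection mix has stood 20 min at ambient temperature. Curves are anchored by DMSO as maximum and by omission of LCK as minimum.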

The next assay deals with c-Cbl (Homo sapiens (Human), UniProt P22681). The assay can be described thus: C-Cbl LCK Ub TR-FRET assay (C-cbl Lck HTRF). The format is biochemical. An outline of the steps:
as §2

The next assay concerns the target c-Cbl (residues 47-435) (Homo sapiens (Human), UniProt P22681). The assay can be described thus: c-Cbl SPR assay. The format is binding. The conditions noted are these: 20° C. An outline of the steps:
as §1

Chain of Cbl-b (Q13191 40-426): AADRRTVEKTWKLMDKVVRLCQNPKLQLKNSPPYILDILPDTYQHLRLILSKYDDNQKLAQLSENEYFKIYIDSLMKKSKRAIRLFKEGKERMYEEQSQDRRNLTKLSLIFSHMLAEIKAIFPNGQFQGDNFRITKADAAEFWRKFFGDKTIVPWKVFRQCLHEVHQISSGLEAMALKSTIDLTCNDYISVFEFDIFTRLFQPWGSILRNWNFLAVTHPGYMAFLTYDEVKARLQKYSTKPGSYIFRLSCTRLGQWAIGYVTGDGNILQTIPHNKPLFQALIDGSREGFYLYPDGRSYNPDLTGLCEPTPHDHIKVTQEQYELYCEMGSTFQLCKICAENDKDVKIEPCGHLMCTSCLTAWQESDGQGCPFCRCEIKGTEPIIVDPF
Chain of Human Cbl-b (residues 40-426) (Q13191 40-426): as above
Chain of c-Cbl (residues 47-435) (P22681 47-435): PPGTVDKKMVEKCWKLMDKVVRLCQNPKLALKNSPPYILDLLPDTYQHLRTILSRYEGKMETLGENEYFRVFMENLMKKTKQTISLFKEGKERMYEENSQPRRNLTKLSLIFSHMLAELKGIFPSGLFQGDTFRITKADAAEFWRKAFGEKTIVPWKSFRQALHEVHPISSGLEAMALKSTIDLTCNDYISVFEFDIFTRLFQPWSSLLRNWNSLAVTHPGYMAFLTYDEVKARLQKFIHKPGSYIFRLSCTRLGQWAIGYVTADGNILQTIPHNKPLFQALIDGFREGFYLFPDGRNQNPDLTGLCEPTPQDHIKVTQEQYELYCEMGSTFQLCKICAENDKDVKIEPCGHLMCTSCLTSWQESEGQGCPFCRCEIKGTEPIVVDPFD
Chain of c-Cbl (P22681 47-435): as above

On to `COC[C@@H]1CC1(c1cccc(N2Cc3c(cc(CNC4(C)CCC4)cc3C(F)(F)F)C2=O)c1)c1nncn1C` (single isomer, unassigned) [Compound 166], for which, in assay [1], the Fold of selectivity turned out to be 5.3× and the pKd was 6.15. Besides, at Cbl-b, the pIC50 is 5.72 and the “fold-selectivity (Cbl-b over C-cbl)” value is reported as 3.8x. This molecule also had a pIC50 against c-Cbl of 5.14. At c-Cbl (residues 47-435), this molecule gave a pKd of 5.42.
For the molecule `COC[C@H]1CC1(c1cccc(N2Cc3c(cc(CNC4(C)CCC4)cc3C(F)(F)F)C2=O)c1)c1nncn1C` (single isomer, unassigned) [Compound 167], in assay [1], the Fold of selectivity worked out at 5.8× and the pKd was 6.04. Further, at Cbl-b, the negative-log IC50 (pIC50) is 5.85 and the “fold-selectivity (Cbl-b over C-cbl)” value was determined as 4.7x. The molecule further had a negative logarithm of the IC50 (pIC50) against c-Cbl of 5.19. At c-Cbl (residues 47-435), the pKd was 5.28.
`C[C@H](c1cccc(N2Cc3c(cc(CNC4(C)CCC4)cc3C(F)(F)F)C2=O)c1)c1nncn1C` (single isomer, unassigned) [Compound 170]: in assay [1], the Fold of selectivity is 2.8× and the pKd was 8.31. For the same molecule, at Cbl-b, the pIC50 is 7.92 and the “fold-selectivity (Cbl-b over C-cbl)” value amounted to 1.0x. For the same molecule, the pIC50 against c-Cbl was 7.92. For the same molecule, at c-Cbl (residues 47-435), the pKd was 7.82.
In assay [1], `C[C@@H](c1cccc(N2Cc3c(cc(CNC4(C)CCC4)cc3C(F)(F)F)C2=O)c1)c1nncn1C` (single isomer, unassigned) [Compound 171, 2-(3-(1-(4-methyl-4H-1,2,4-triazol-3-yl)ethyl)phenyl)-6-(((1-methylcyclobutyl)amino)methyl)-4-(trifluoromethyl)isoindolin-1-one] had a Fold of selectivity of 2.1× and a negative-log Kd (pKd) of 6.10. For the same molecule, at Cbl-b, the pIC50 was 5.96 and the “fold-selectivity (Cbl-b over C-cbl)” value was determined as 2.0x. Besides, the negative logarithm of the IC50 (pIC50) against c-Cbl was 5.64. On c-Cbl (residues 47-435), this molecule gave a pKd of 5.77.
As to `CO[C@H]1C[C@@](c2cccc(N3Cc4c(cc(CN5CCN(C)C[C@@H]5C(C)C)cc4C(F)(F)F)C3=O)c2)(c2nncn2C)C1` (single isomer, unassigned) [Compound 172], in assay [1], the Fold of selectivity is 4.7× and the negative logarithm of the Kd (pKd) is 7.17. Also, at Cbl-b, the pIC50 was 7.06 and the “fold-selectivity (Cbl-b over C-cbl)” value is recorded as 3.4x. Besides, the pIC50 at c-Cbl is 6.54. On c-Cbl (residues 47-435), this molecule gave a pKd of 6.51.
With `C[C@H](NC1(C)CCC1)c1cc2c(c(C(F)(F)F)c1)CN(c1cccc(C3(c4nncn4C)CC(F)(F)C3)c1)C2=O` (single isomer, unassigned) [Compound 173], the Fold of selectivity in assay [1] amounted to 6.3×. The pKd is 8.10 in assay [1] and 7.31 on c-Cbl (residues 47-435). Also, the pIC50 is 7.70 against Cbl-b and 7.35 on c-Cbl. Further, at Cbl-b, the “fold-selectivity (Cbl-b over C-cbl)” value was 2.2x.
Take `C[C@@H](NC1(C)CCC1)c1cc2c(c(C(F)(F)F)c1)CN(c1cccc(C3(c4nncn4C)CC(F)(F)C3)c1)C2=O` (single isomer, unassigned) [Compound 174]: in assay [1], the Fold of selectivity came out at 2.8× and the pKd is 9.40. On Cbl-b, the pIC50 is 8.07 and the “fold-selectivity (Cbl-b over C-cbl)” value was 0.80x. The pIC50 on c-Cbl is 8.17. Moreover, on c-Cbl (residues 47-435), the pKd is 8.96.
Regarding `CO[C@H]1C[C@@](c2cccc(N3Cc4c(cc([C@@H](C)NC5(C)CCC5)cc4C(F)(F)F)C3=O)c2)(c2nncn2C)C1` (single isomer, unassigned) [Compound 175], in assay [1], the Fold of selectivity turned out to be 6.4× and the negative logarithm of the Kd (pKd) is 9.02. In addition, on Cbl-b, the pIC50 was 8.02 and the “fold-selectivity (Cbl-b over C-cbl)” value is on record as 1.0x. Besides, the pIC50 against c-Cbl is 8.01. The same molecule had a pKd on c-Cbl (residues 47-435) of 8.22.
In assay [1], `CO[C@H]1C[C@@](c2cccc(N3Cc4c(cc([C@H](C)NC5(C)CCC5)cc4C(F)(F)F)C3=O)c2)(c2nncn2C)C1` (single isomer, unassigned) [Compound 176] had a Fold of selectivity of 6.8× and a pKd of 7.39. Further, on Cbl-b, the pIC50 is 7.21 and the “fold-selectivity (Cbl-b over C-cbl)” value amounted to 3.4x. For the same molecule, on c-Cbl, the pIC50 was 6.66. Further, the pKd on c-Cbl (residues 47-435) was 6.55.
With `CO[C@H]1C[C@](c2cccc(N3Cc4c(cc([C@@H](C)NC5(C)CCC5)cc4C(F)(F)F)C3=O)c2)(c2nncn2C)C1` (single isomer, unassigned) [Compound 184], in assay [1], the Fold of selectivity came to 6.3× and the pKd is 9.38. In addition, on Cbl-b, the negative-log IC50 (pIC50) was 8.12 and the “fold-selectivity (Cbl-b over C-cbl)” value worked out at 1.1x. Moreover, on c-Cbl, the negative-log IC50 (pIC50) was 8.08. The molecule also gave a pKd at c-Cbl (residues 47-435) of 8.60.
For the molecule `CO[C@H]1C[C@](c2cccc(N3Cc4c(cc([C@H](C)NC5(C)CCC5)cc4C(F)(F)F)C3=O)c2)(c2nncn2C)C1` (single isomer, unassigned) [Compound 185], the Fold of selectivity in assay [1] turned out to be 29×. For the same molecule, the pKd was 8.49 in assay [1] and 7.01 at c-Cbl (residues 47-435). Further, the negative-log IC50 (pIC50) is 7.64 against Cbl-b and 6.82 against c-Cbl. Further, at Cbl-b, the “fold-selectivity (Cbl-b over C-cbl)” value is recorded as 6.7x.
In the case of `CC(C)[C@H]1CN(C)CCN1Cc1cc(Cl)c2c(c1)C(=O)N(c1cccc(C3(c4nncn4C)CC4(COC4)C3)c1)C2` (single isomer, unassigned) [Compound 204], in assay [1], the Fold of selectivity is listed as 4.1× and the pKd was 8.43. At Cbl-b, the pIC50 was 7.89 and the “fold-selectivity (Cbl-b over C-cbl)” value was found to be 2.3x. This molecule also had a pIC50 on c-Cbl of 7.54. On c-Cbl (residues 47-435), this molecule had a pKd of 7.82.
As for `C=C[C@@H](C)Nc1cc(N2Cc3c(cc(CNC4(C)CCC4)cc3C(F)(F)F)C2=O)cc([C@]2(c3nncn3C)C[C@H](OC)C2)c1` (single isomer, unassigned) [Compound 219], in assay [1], the Fold of selectivity was 6.5× and the pKd is 8.35. Moreover, at Cbl-b, the pIC50 was 7.89 and the “fold-selectivity (Cbl-b over C-cbl)” value stood at 2.7x. The pIC50 on c-Cbl was 7.44. At c-Cbl (residues 47-435), this molecule gave a pKd of 7.54.
As for `C=C[C@H](C)Nc1cc(N2Cc3c(cc(CNC4(C)CCC4)cc3C(F)(F)F)C2=O)cc([C@]2(c3nncn3C)C[C@H](OC)C2)c1` (single isomer, unassigned) [Compound 220], in assay [1], the Fold of selectivity was 13× and the pKd is 8.57. Also, at Cbl-b, the pIC50 was 7.89 and the “fold-selectivity (Cbl-b over C-cbl)” value is 3.0x. In addition, at c-Cbl, the pIC50 was 7.41. In addition, the negative logarithm of the Kd (pKd) at c-Cbl (residues 47-435) is 7.47.
In the case of `CO[C@H]1C[C@](c2cc(N[C@H](C)CC#N)cc(N3Cc4c(cc(CNC5(C)CCC5)cc4C(F)(F)F)C3=O)c2)(c2nncn2C)C1` (single isomer, unassigned) [Compound 221], the Fold of selectivity in assay [1] amounted to 5.8×. The pKd was 8.89 in assay [1] and 8.12 on c-Cbl (residues 47-435). For the same molecule, the pIC50 at Cbl-b is 7.96; at c-Cbl, 7.80. In addition, the “fold-selectivity (Cbl-b over C-cbl)” value on Cbl-b is listed as 1.5x.
In assay [1], `CO[C@H]1C[C@](c2cc(N[C@@H](C)CC#N)cc(N3Cc4c(cc(CNC5(C)CCC5)cc4C(F)(F)F)C3=O)c2)(c2nncn2C)C1` (single isomer, unassigned) [Compound 225] gave a Fold of selectivity of 5.6× and a pKd of 8.16. Moreover, on Cbl-b, the pIC50 is 7.74 and the “fold-selectivity (Cbl-b over C-cbl)” value worked out at 4.0x. Further, the pIC50 against c-Cbl was 7.14. This molecule showed a pKd on c-Cbl (residues 47-435) of 7.41.
In assay [1], `CO[C@H]1C[C@@](c2cc(N[C@H](C)CC#N)cc(N3Cc4c(cc(CNC5(C)CCC5)cc4C(F)(F)F)C3=O)c2)(c2nncn2C)C1` (single isomer, unassigned) [Compound 228] gave a Fold of selectivity of 8.7× and a pKd of 8.72. Moreover, at Cbl-b, the negative logarithm of the IC50 (pIC50) was 7.80 and the “fold-selectivity (Cbl-b over C-cbl)” value was determined as 1.3x. Moreover, the pIC50 against c-Cbl was 7.68. In addition, the pKd on c-Cbl (residues 47-435) was 7.80.
Take `CO[C@H]1C[C@@](c2cc(N[C@@H](C)CC#N)cc(N3Cc4c(cc(CNC5(C)CCC5)cc4C(F)(F)F)C3=O)c2)(c2nncn2C)C1` (single isomer, unassigned) [Compound 233]: in assay [1], the Fold of selectivity was 7.1× and the negative logarithm of the Kd (pKd) was 7.68. Further, at Cbl-b, the pIC50 is 7.40 and the “fold-selectivity (Cbl-b over C-cbl)” value came out at 5.0x. Further, the pIC50 against c-Cbl is 6.70. For the same molecule, the pKd at c-Cbl (residues 47-435) is 6.82.
In the case of `Cn1cnnc1[C@H](c1cccc(N2Cc3c(cc(CNC4(C)CCC4)cc3C(F)(F)F)C2=O)c1)C1CCC1` (single isomer, unassigned) [Compound 259], in assay [1], the Fold of selectivity worked out at 5.5× and the pKd is 9.66. Moreover, on Cbl-b, the pIC50 was 7.80 and the “fold-selectivity (Cbl-b over C-cbl)” value was found to be 1.0x. Besides, the pIC50 against c-Cbl was 7.80. In addition, the pKd at c-Cbl (residues 47-435) is 8.96.
In assay [1], `Cn1cnnc1[C@H](c1cccc(N2Cc3c(cc(CNC4(C)CCC4)cc3C(F)(F)F)C2=O)c1)C1CC(OCC(F)F)C1` (single isomer, unassigned) [Compound 262] gave a Fold of selectivity of 12× and a pKd of 7.89. Further, on Cbl-b, the pIC50 was 7.42 and the “fold-selectivity (Cbl-b over C-cbl)” value is on record as 7.1x. The pIC50 against c-Cbl was 6.57. The molecule further gave a pKd on c-Cbl (residues 47-435) of 6.82.
In assay [1], `Cn1cnnc1[C@H](c1cccc(N2Cc3c(cc(CNC4(C)CCC4)cc3C(F)(F)F)C2=O)c1)C1CC(OCC(F)F)C1` (single isomer, unassigned) [Compound 263] had a Fold of selectivity of 5.4× and a pKd of 8.72. For the same molecule, on Cbl-b, the pIC50 is 8.00 and the “fold-selectivity (Cbl-b over C-cbl)” value amounted to 1.8x. The molecule further showed a pIC50 against c-Cbl of 7.74. This molecule had a pKd on c-Cbl (residues 47-435) of 8.00.

For the origin of these results see US12187709B2 (Genentech, Inc., priority 2021, dated 2025).
